The text below walks through data of ChEMBL document CHEMBL5247575 (J Med Chem, 2018).

Each structure is given as a SMILES string.

For one test, the system named is Klebsiella pneumoniae. Briefly: Antibacterial activity against Klebsiella pneumoniae 1108/1989 producing KPC-3 by broth microdilution method. It counts as functional. In general terms: Broth dilution looks for growth in wells or tubes with falling amounts of substance.
Another test deals with Bacteria. Briefly: Inhibition of bacteria PDC-3 assessed as Koff rate using nitrocefin as substrate incubated for 30 mins.
In another test the test system is Acinetobacter baumannii. The experiment in a line: Synergistic antibacterial activity against Acinetobacter baumannii NCTC 13301 producing OXA-23/51 infected in sc dosed Swiss albino mouse assessed as cefepime MIC at 8 ug/ml administered 1 hr post infection and measured upto 7 days. Format: functional. Particulars: NCTC 13301, 168 h, dose 8 µg/ml, time <= 7 day.

As a reminder, the MIC is the lowest concentration that inhibits growth of the organism.

With `O=C(NNC(=O)[C@@H]1CC[C@@H]2CN1C(=O)N2OS(=O)(=O)O)[C@@H]1CCCNC1` [ZIDEBACTAM], the MIC against Klebsiella pneumoniae was over 16 mg/L.

`NC(=O)[C@@H]1CC[C@@H]2CN1C(=O)N2OS(=O)(=O)[O-].[Na+]` [AVIBACTAM SODIUM]: in the test with Bacteria, the K was 8 10^-4/s.

As for `N#C[C@@H]1CC[C@@H]2CN1C(=O)N2OS(=O)(=O)[O-].[Na+]`, the MIC with Acinetobacter baumannii was over 256 mg/L.
